# From US11219658B2, “Composition for preventing or treating diseases caused by caffeine abuse including Evodia officinalis extract or evodiamine as active ingredient” (priority 2016, dated 2022)
# Marks after values point to notes of the source that are not given here.
# How the values were obtained:
# [1] = tested on: mouse model having somnipathy caused by caffeine abuse; experiment: Caffeine-induced somnipathy, Entobar (pentobarbital)-induced sleep onset and sleep duration; assay type: in vivo, ICR male mice; settings: for Change in sleep onset (% of Control) / Change in total sleep duration (% of Control): vehicle control = 100
# Procedure: (§1) 4-week-old ICR male mice (20 to 22 g) were provided from Koatech (Pyeongtaek, Korea), acclimated by breeding for 1 week or more in an animal breeding room in the School of Pharmacy at Sungkyunkwan University, and freely fed water and feed. The temperature (23±2° C.), humidity (55±10%) and a dark/light cycle (12 hrs) were automatically controlled.
# Specifically, the first group was a group treated with 10% DMSO-containing distilled water and 40 mg/kg of Entobar® as a control, the second group was a group treated with 10% DMSO-containing distilled water, 50 mg/kg of caffeine and 40 mg/kg of Entobar®, the third group was a group treated with 200 mg/kg of the Evodia officinalis extract, 50 mg/kg of caffeine and 40 mg/kg of Entobar®, and the fourth group was a group treated with 400 mg/kg of the Evodia officinalis extract, 50 mg/kg of caffeine and 40 mg/kg of Entobar®.
# Regarding the administration method, the Evodia officinalis extract was dissolved in 10% DMSO-containing distilled water, orally administered to the mice at doses of 0, 200 and 400 mg/kg once a day for three days, and 30 minutes after the final administration. 50 mg/kg of caffeine was intraperitoneally injected into the mice. Thirty minutes after the caffeine injection, 40 mg/kg of Entobar® was intraperitoneally injected to induce sleep. Immediately after the Entobar® injection, the mice were put into each cage, and then sleep onset and sleep duration were measured.
# To compare caffeine-induced somnipathy-improving effects of the Evodia officinalis extract and evodiamine, the Evodia officinalis hot water extract prepared in Example 3, ethanol extract thereof and evodiamine were orally administered to the mice prepared in Example 2 once a day for 3 days. 30 minutes after the final administration, 50 mg/kg of caffeine was intraperitoneally injected into the mice. After thirty minutes. 40 mg/kg of Entobar® was intraperitoneally injected to induce sleep, followed by measuring sleep onset and total sleep duration.
# [2] = tested on: mouse model having motor activity increased by central nervous system stimulation due to caffeine abuse; experiment: Caffeine-induced central nervous system stimulation, motor activity in motor ability measurement box; assay type: in vivo, ICR male mice; settings: for excitatory motor activity count (center count), percentage of movement in the center of the box: solvent control 16%; for excitatory motor activity time (center time), percentage of maintenance in the center of the box: solvent control 3%; for total movement of excitatory motor activity: solvent control 7,107 cm
# Procedure: as §1
# To measure an inhibitory effect of evodiamine on caffeine-induced central nervous system stimulation, the mice prepared in Example 2 were divided into four groups of 12 mice, and treated with evodiamine and caffeine in a different manner. The first group was a group treated with distilled water containing 10% DMSO (control), the second group was a group treated with 10% DMSO-containing distilled water and 10 mg/kg of caffeine, the third group was a group treated with 10 mg/kg of evodiamine and 10 mg/kg of caffeine, and the fourth group was a group treated with 20 mg/kg of evodiamine and 10 mg/kg of caffeine.
# Evodiamine was dissolved in 10% DMSO-containing distilled water, and orally administered to mice at doses of 0, 10 and 20 mg/kg, and 30 minutes later, intraperitoneally injected with caffeine 10 mg/kg of caffeine. Then, after 30 minutes, the mice were put into a motor ability measurement box (diameter: 30×30×30 (cm)), and measured for a total of 60 minutes using a video measurement and analysis system (Neurovision, Busan, Korea), followed by conversion of the improvement or inhibition in an increased excitatory motor activity count (center count), excitatory motor activity time (center time) and total movement of excitatory motor activity (total movement) to percentage (%).
# [3] = caffeine 50 mg/kg i.p. alone + Entobar 40 mg/kg i.p.
# [4] = evodiamine 5 mg/kg p.o. once a day for 3 days + caffeine 50 mg/kg i.p. + Entobar 40 mg/kg i.p.
# [5] = evodiamine 10 mg/kg p.o. once a day for 3 days + caffeine 50 mg/kg i.p. + Entobar 40 mg/kg i.p.
Structure (SMILES),"sleep onset ([1]; caffeine 50 mg/kg i.p. + Entobar 40 mg/kg i.p., control without caffeine 219 seconds)","sleep duration ([1]; caffeine 50 mg/kg i.p. + Entobar 40 mg/kg i.p., control without caffeine 2,940 seconds)","Change in sleep onset (% of Control) [1, 3]","Change in total sleep duration (% of Control) [1, 3]","excitatory motor activity count (center count), percentage of movement in the center of the box ([2]; caffeine 10 mg/kg i.p. alone (10% DMSO vehicle p.o.), 60 min measurement)","excitatory motor activity time (center time), percentage of maintenance in the center of the box ([2]; caffeine 10 mg/kg i.p. alone)",total movement of excitatory motor activity ([2]; caffeine 10 mg/kg i.p. alone),"Change in sleep onset (% of Control) [1, 4]","Change in total sleep duration (% of Control) [1, 4]","Change in sleep onset (% of Control) [1, 5]","Change in total sleep duration (% of Control) [1, 5]","excitatory motor activity time (center time), percentage of maintenance in the center of the box ([2]; evodiamine 10 mg/kg p.o. + caffeine 10 mg/kg i.p., caffeine control 9%)","excitatory motor activity count (center count), percentage of movement in the center of the box ([2]; evodiamine 10 mg/kg p.o. + caffeine 10 mg/kg i.p., caffeine control 23%)","total movement of excitatory motor activity ([2]; evodiamine 10 mg/kg p.o. + caffeine 10 mg/kg i.p., caffeine control 15,078 cm)","excitatory motor activity time (center time), percentage of maintenance in the center of the box ([2]; evodiamine 20 mg/kg p.o. + caffeine 10 mg/kg i.p., caffeine control 9%)","excitatory motor activity count (center count), percentage of movement in the center of the box ([2]; evodiamine 20 mg/kg p.o. + caffeine 10 mg/kg i.p., caffeine control 23%)","total movement of excitatory motor activity ([2]; evodiamine 20 mg/kg p.o. + caffeine 10 mg/kg i.p., caffeine control 15,078 cm)"
"Cn1c(=O)c2c(ncn2C)n(C)c1=O [caffeine, 1,3,7-trimethylxanthine]",371 s,"1,812 seconds",166.8 *** % of Control,57.4 ** % of Control,23%,9%,"15,078 cm",,,,,,,,,,
CN1c2ccccc2C(=O)N2CCc3c([nH]c4ccccc34)C21 (centres unmarked) [evodiamine],,,,,,,,138.7 % of Control,100.5 # % of Control,108.2 # % of Control,94.0 % of Control,7%,20%,"12,734 cm",5%,19%,"10,910 cm"
